Earlier results, collected in patent US10028927B2, “Topical pharmaceutical formulation” (Futura Medical Developments Limited, priority 2015, dated 2018).
Counter-ions that a name gives are not always drawn. One block for each compound: values may come before it.

Tests used:
[1] = in vivo
[2] = saturated systems in polyethylene glycol and propylene glycol

SMILES: O=C(O)Cc1ccccc1Nc1c(Cl)cccc1Cl [diclofenac]
systemic clearance compared with other drugs [1]: more rapid systemic clearance compared with other drugs

saturated solubility in propylene glycol (propylene glycol): approximately 50 % w/w
SMILES: O=C(O)Cc1ccccc1Nc1c(Cl)cccc1Cl [sodium salt of diclofenac acid, diclofenac sodium]

saturated solubility in polyethylene glycol (polyethylene glycol): 11.18 % w/w
saturated solubilities in propanol or iso-propanol (propanol or iso-propanol): 3-4%
saturated solubility in pure ethanol (pure ethanol): 5 % w/w
diclofenac flux, polyethylene glycol versus propylene glycol systems [2]: no significant difference
SMILES: O=C(O)Cc1ccccc1Nc1c(Cl)cccc1Cl [diclofenac acid]
